# Measured values as given in the supplement of paper PMC10307832.
# What was measured:
# Test in all cases: relative viability (nuclei count vs DMSO), 5 days (fraction); higher = more cells survive
# PC-14 = tested on: PC-14
# In short: (§1)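 Dosing by pin tool came one day after lung cancer cell lines were seeded in 1536-well plates, using either one drug or a fixed anchor-drug dose plus five library-drug doses (not always all listed) in √10 steps. After 5 days, nuclei were counted on 4× images. Relative viability is treated-well nuclei count divided by vehicle-well nuclei count, and values are medians of duplicate plates.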
# LCLC-97TM1 = tested on: LCLC-97TM1
# In short: as §1
# NCI-H647 = tested on: NCI-H647
# In short: as §1
# NCI-H1734 = tested on: NCI-H1734
# In short: as §1
# LXF-289 = tested on: LXF-289
# In short: as §1
# NCI-H727 = tested on: NCI-H727
# In short: as §1
# NCI-H1915 = tested on: NCI-H1915
# In short: as §1
# NCI-H1993 = tested on: NCI-H1993
# In short: as §1
# NCI-H2085 = tested on: NCI-H2085
# In short: as §1
# NCI-H322M = tested on: NCI-H322M
# In short: as §1
# HOP-62 = tested on: HOP-62
# In short: as §1
# NCI-H661 = tested on: NCI-H661
# In short: as §1
# EPLC-272H = tested on: EPLC-272H
# In short: as §1
# NCI-H2126 = tested on: NCI-H2126
# In short: as §1
# SW 1573 = tested on: SW 1573
# In short: as §1
# H3255 = tested on: H3255
# In short: as §1
# SK-LU-1 = tested on: SK-LU-1
# In short: as §1
# NCI-H2023 = tested on: NCI-H2023
# In short: as §1
# NCI-H2347 = tested on: NCI-H2347
# In short: as §1
# EMC-BAC-2 = tested on: EMC-BAC-2
# In short: as §1
# NCI-H2009 = tested on: NCI-H2009
# In short: as §1
compound,measurement,setting,value
Cc1sc2c(c1C)C(c1ccc(Cl)cc1)=N[C@@H](CC(=O)OC(C)(C)C)c1nnc(C)n1-2 [JQ1] + O=C(c1cc(Cc2n[nH]c(=O)c3ccccc23)ccc1F)N1CCN(C(=O)C2CC2)CC1 [Olaparib] (partner 8 µM),relative viability,PC-14; first compound 0.04 µM,0.271
same,relative viability,PC-14; first compound 0.1265 µM,0.153
same,relative viability,PC-14; first compound 0.4 µM,0.14
same,relative viability,PC-14; first compound 1.265 µM,0.0655
same,relative viability,PC-14; first compound 4 µM,0.0723
same,relative viability,LCLC-97TM1; first compound 0.04 µM,0.354
same,relative viability,LCLC-97TM1; first compound 0.1265 µM,0.297
same,relative viability,LCLC-97TM1; first compound 0.4 µM,0.297
same,relative viability,LCLC-97TM1; first compound 1.265 µM,0.149
same,relative viability,LCLC-97TM1; first compound 4 µM,0.108
same,relative viability,NCI-H647; first compound 0.04 µM,0.384
same,relative viability,NCI-H647; first compound 0.1265 µM,0.185
same,relative viability,NCI-H647; first compound 0.4 µM,0.128
same,relative viability,NCI-H647; first compound 1.265 µM,0.0378
same,relative viability,NCI-H647; first compound 4 µM,0.036
same,relative viability,NCI-H1734; first compound 0.04 µM,0.606
same,relative viability,NCI-H1734; first compound 0.1265 µM,0.556
same,relative viability,NCI-H1734; first compound 0.4 µM,0.563
same,relative viability,NCI-H1734; first compound 1.265 µM,0.47
same,relative viability,NCI-H1734; first compound 4 µM,0.349
same,relative viability,LXF-289; first compound 0.04 µM,0.99
same,relative viability,LXF-289; first compound 0.1265 µM,1.06
same,relative viability,LXF-289; first compound 0.4 µM,0.744
same,relative viability,LXF-289; first compound 1.265 µM,0.47
same,relative viability,LXF-289; first compound 4 µM,0.258
same,relative viability,NCI-H727; first compound 0.04 µM,0.668
same,relative viability,NCI-H727; first compound 0.1265 µM,0.759
same,relative viability,NCI-H727; first compound 0.4 µM,0.599
same,relative viability,NCI-H727; first compound 1.265 µM,0.555
same,relative viability,NCI-H727; first compound 4 µM,0.497
same,relative viability,NCI-H1915; first compound 0.04 µM,0.23
same,relative viability,NCI-H1915; first compound 0.4 µM,0.184
same,relative viability,NCI-H1915; first compound 1.265 µM,0.138
same,relative viability,NCI-H1915; first compound 4 µM,0.107
same,relative viability,NCI-H1993; first compound 0.04 µM,0.922
same,relative viability,NCI-H1993; first compound 0.1265 µM,0.994
same,relative viability,NCI-H1993; first compound 0.4 µM,1.1
same,relative viability,NCI-H1993; first compound 1.265 µM,0.807
same,relative viability,NCI-H1993; first compound 4 µM,0.584
same,relative viability,NCI-H2085; first compound 0.04 µM,0.781
same,relative viability,NCI-H2085; first compound 0.1265 µM,0.696
same,relative viability,NCI-H2085; first compound 0.4 µM,0.693
same,relative viability,NCI-H2085; first compound 1.265 µM,0.601
same,relative viability,NCI-H2085; first compound 4 µM,0.604
same,relative viability,NCI-H322M; first compound 0.04 µM,0.597
same,relative viability,NCI-H322M; first compound 0.1265 µM,0.933
same,relative viability,NCI-H322M; first compound 0.4 µM,0.654
same,relative viability,NCI-H322M; first compound 1.265 µM,0.536
same,relative viability,NCI-H322M; first compound 4 µM,0.461
same,relative viability,HOP-62; first compound 0.04 µM,0.306
same,relative viability,HOP-62; first compound 0.1265 µM,0.285
same,relative viability,HOP-62; first compound 0.4 µM,0.18
same,relative viability,HOP-62; first compound 1.265 µM,0.114
same,relative viability,HOP-62; first compound 4 µM,0.115
same,relative viability,NCI-H661; first compound 0.04 µM,0.75
same,relative viability,NCI-H661; first compound 0.1265 µM,0.709
same,relative viability,NCI-H661; first compound 0.4 µM,0.781
same,relative viability,NCI-H661; first compound 1.265 µM,0.536
same,relative viability,NCI-H661; first compound 4 µM,0.427
same,relative viability,EPLC-272H; first compound 0.04 µM,0.836
same,relative viability,EPLC-272H; first compound 0.1265 µM,0.716
same,relative viability,EPLC-272H; first compound 0.4 µM,0.53
same,relative viability,EPLC-272H; first compound 1.265 µM,0.471
same,relative viability,EPLC-272H; first compound 4 µM,0.199
same,relative viability,NCI-H2126; first compound 0.04 µM,0.895
same,relative viability,NCI-H2126; first compound 0.1265 µM,0.909
same,relative viability,NCI-H2126; first compound 0.4 µM,0.951
same,relative viability,NCI-H2126; first compound 1.265 µM,0.8
same,relative viability,NCI-H2126; first compound 4 µM,0.735
same,relative viability,SW 1573; first compound 0.04 µM,0.428
same,relative viability,SW 1573; first compound 0.1265 µM,0.317
same,relative viability,SW 1573; first compound 0.4 µM,0.344
same,relative viability,SW 1573; first compound 1.265 µM,0.211
same,relative viability,SW 1573; first compound 4 µM,0.178
same,relative viability,H3255; first compound 0.04 µM,0.528
same,relative viability,H3255; first compound 0.1265 µM,0.492
same,relative viability,H3255; first compound 0.4 µM,0.439
same,relative viability,H3255; first compound 1.265 µM,0.305
same,relative viability,H3255; first compound 4 µM,0.264
same,relative viability,SK-LU-1; first compound 0.04 µM,0.452
same,relative viability,SK-LU-1; first compound 0.1265 µM,0.358
same,relative viability,SK-LU-1; first compound 0.4 µM,0.374
same,relative viability,SK-LU-1; first compound 1.265 µM,0.153
same,relative viability,SK-LU-1; first compound 4 µM,0.124
same,relative viability,NCI-H2023; first compound 0.04 µM,0.442
same,relative viability,NCI-H2023; first compound 0.1265 µM,0.342
same,relative viability,NCI-H2023; first compound 0.4 µM,0.207
same,relative viability,NCI-H2023; first compound 1.265 µM,0.104
same,relative viability,NCI-H2023; first compound 4 µM,0.0832
same,relative viability,NCI-H2347; first compound 0.04 µM,0.544
same,relative viability,NCI-H2347; first compound 0.1265 µM,0.557
same,relative viability,NCI-H2347; first compound 0.4 µM,0.477
same,relative viability,NCI-H2347; first compound 1.265 µM,0.435
same,relative viability,NCI-H2347; first compound 4 µM,0.409
same,relative viability,EMC-BAC-2; first compound 0.04 µM,0.447
same,relative viability,EMC-BAC-2; first compound 0.1265 µM,0.433
same,relative viability,EMC-BAC-2; first compound 0.4 µM,0.391
same,relative viability,EMC-BAC-2; first compound 1.265 µM,0.32
same,relative viability,EMC-BAC-2; first compound 4 µM,0.259
same,relative viability,NCI-H2009; first compound 0.04 µM,0.689
same,relative viability,NCI-H2009; first compound 0.1265 µM,0.548
same,relative viability,NCI-H2009; first compound 0.4 µM,0.545
same,relative viability,NCI-H2009; first compound 1.265 µM,0.198
same,relative viability,NCI-H2009; first compound 4 µM,0.152
